The text below walks through data of patent publication US20240252502A1, “HDAC6 INHIBITORS FOR TREATMENT OF METABOLIC DISEASE AND HFPEF” (Tenaya Therapeutics, Inc., priority 2021, published 2024).

In this experiment the test system is HFD/L-NAME mice (HFpEF model). In words: HFD/L-NAME HFpEF mouse model, TYA-11018 versus Empagliflozin. It is filed as in vivo. To be noted: 15 mg/kg TYA-11018 or 10 mg/kg Empagliflozin orally once daily for 9 weeks. Here is the method:
After HFpEF phenotypes were established, mice received 15 mg/kg TYA-11018 or 10 mg/kg Empagliflozin, or vehicle orally once daily for 9 weeks. Health monitoring was performed weekly with body weights recorded. Glucose tolerance test was performed after 1st dose. Cardiac function was recorded by echocardiography after treatment for 9 weeks. End diastolic pressure (EDP) was measured by PV-Loop at terminal at 9 weeks after dosing.
Animals: Cohort of mice with established HFpEF phenotypes and age/sex matched wild type controls were used for dosing study. […] After acclimation for 1 week, one group of mice was fed with high fat diet containing 0.07% L-NAME (LabDiet 5G5V, St Louis, MO) for 15 weeks. The control group of mice were fed with normal chow (LabDiet 5053, St Louis, MO). […] Animals were housed in an animal research facility in accordance with the National Research Council of the National Academies guidelines for the care and use of laboratory animals.
A second group of mice was fed with standard chow for controls.
Transthoracic echocardiography was performed using a VisualSonics Vevo 2100 system equipped with MS400 transducer (Visual Sonics, Toronto, ON). LVEF and other indices of systolic function were obtained from short-axis M-mode scans at the midventricular level, as indicated by the presence of papillary muscles, in conscious, gently restrained mice. […]
Intraperitoneal glucose-tolerance tests were performed by injection of glucose (2 g/kg in saline) after 6 hour fasting (from 7 a.m. to 1 p.m.). Tail blood glucose levels (mg/dL) were measured by AimStrip Plus blood glucose strips used with the AimStrip Plus blood glucose monitoring system (Germaine Laboratories, San Antonio, TX) at 0 (baseline, before glucose dose), 15, 30, 45, 60 and 120 minutes after glucose administration.
The trachea was exposed by a midline incision from the base of the throat to just above the clavicle. […] The hemodynamic parameters were then recorded in close-chest mode. […]

For `OC[C@H]1O[C@@H](c2ccc(Cl)c(Cc3ccc(O[C@H]4CCOC4)cc3)c2)[C@H](O)[C@@H](O)[C@@H]1O` [Empagliflozin, empagliflozin], the E/A result was “decreased” and the “E/e′ ratio” value was “decreased”. The end diastolic pressure entry (PV-Loop) is “reduced end diastolic pressure”.
